Assay results: US11015224B2, “RAF gene fusions” (THE REGENTS OF THE UNIVERSITY OF MICHIGAN, priority 2010, dated 2021)

Key:
[1] = target: BRAFV600E mutation (Homo sapiens, UniProt P15056, V600E); conditions: Sala et al. 2008; cited from earlier work
[2] = tested on: MEK and ERK phosphorylation in RWPE cells expressing ESRP1-RAF1; conditions: U0126 (10 μM) for 2 h, FIG. 4e
Procedure: (§1) MEK-ERK signaling pathway analysis. Stable pooled populations of RWPE cells expressing SLC45A3-BRAF or […] were maintained in supplement-free medium without supplements for 2 h. For MEK inhibitor treatments, U0126 (10 μM) was added in the supplement-free keratinocyte medium for 2 h. MEK and ERK activation was assessed by western blot analysis with antibodies to phospho-MEK or ERK and total MEK or ERK antibodies (Cell Signaling Technologies).

[3] = tested on: MEK½ and ERK½ phosphorylation in BRAFV600E mutation-positive melanoma cell line SK-MEL-94; conditions: SK-MEL-94 control cell line
Procedure: as §1

[4] = tested on: MEK and ERK phosphorylation in RWPE cells expressing SLC45A3-BRAF; conditions: U0126 (10 μM) for 2 h, FIG. 4e
Procedure: as §1

[5] = tested on: DUSP6 or SPRY2 mRNA expression in RWPE cells expressing SLC45A3-BRAF; conditions: U0126, 10 mM, 2 hours, Keratinocyte-supplement free media, FIG. 11
Procedure: as §1
(§2) Real Time PCR validation. Quantitative PCR (QPCR) was performed using Power SYBR Green Mastermix (Applied Biosystems) on an Applied Biosystems StepOnePlus Real-Time PCR System. All oligonucleotide primers were obtained from Integrated DNA Technologies and are listed below. The GAPDH primer was used as a control. All assays were performed and repeated twice and results were plotted as average fold change relative to GAPDH.

[6] = tested on: DUSP6 or SPRY2 mRNA expression in RWPE cells expressing ESRP1-RAF1; conditions: U0126, 10 mM, 2 hours, Keratinocyte-supplement free media, FIG. 11
Procedure: as §1, §2

[7] = tested on: RWPE cells expressing ESRP1-RAF1; conditions: sorafenib (10 μM) or U0126 (1 or 10 μM), FIG. 4a,b
Procedure: (§3) Cell invasion and proliferation assays. Equal numbers of cells were plated into 96-well plates, and a cell proliferation assay was performed using WST-1 reagent (Roche) following the manufacturer's protocol. For the Boyden chamber Matrigel invasion assay, equal numbers of cells were plated into each Matrigelcoated transwell in the presence of sorafenib or U0126 (Calbiochem) or DMSO (Sigma). Invasion assays were performed as described previously (Kleer, C. G. et al. Proc. Natl. Acad. Sci. USA 100, 11606-11611 (2003); Cao, Q. et al. Oncogene 27, 7274-7284 (2008)).

[8] = tested on: RWPE cells expressing SLC45A3-BRAF; conditions: sorafenib (10 μM) or U0126 (1 or 10 μM), FIG. 4a,b
Procedure: as §3

[9] = tested on: RWPE cells stably expressing SLC45A3-BRAF; conditions: sorafenib or U0126 (10 μM), 14 d, FIG. 4c,d
Procedure: (§4) In vitro soft agar growth. For in vitro growth in soft agar, 2 ml of 0.6% SeaPlaque GTG Agarose (Cambrex) dissolved in complete keratinocyte supplement-free medium (Invitrogen) was poured into six-well dishes. After polymerization, a second layer containing 2 ml of 0.4% agar in complete keratinocyte supplement-free medium, and RWPE cells stably expressing SLC45A3-BRAF or ESRP1-RAF 1 (1×10^4 cells per well) were poured on top. The next day, cells were treated with sorafenib or U0126 (10 μM) in 1 ml of supplement-free keratinocyte medium. Soft-agar assay plates were incubated for 14 d at 37° C. MEK inhibitor (U0126) or sorafenib was changed once a week. Each experimental condition was done in triplicate. On day 14, colonies larger than 40 μm in diameter were counted.

[10] = tested on: RWPE cells stably expressing ESRP1-RAF1; conditions: sorafenib or U0126 (10 μM), 14 d, FIG. 4c,d
Procedure: as §4

[11] = tested on: RWPE cells overexpressing SLC45A3-BRAF; conditions: FIG. 3c
Procedure: as §3

[12] = tested on: RWPE cells overexpressing ESRP1-RAF1; test: Cell proliferation assay (WST-1); format: cell-based, human; conditions: RWPE cells overexpressing ESRP1-RAF1, FIG. 3d
Excerpt: Cell invasion and proliferation assays.

Sequence of BRAFV600E mutation (P15056 whole entry V600E): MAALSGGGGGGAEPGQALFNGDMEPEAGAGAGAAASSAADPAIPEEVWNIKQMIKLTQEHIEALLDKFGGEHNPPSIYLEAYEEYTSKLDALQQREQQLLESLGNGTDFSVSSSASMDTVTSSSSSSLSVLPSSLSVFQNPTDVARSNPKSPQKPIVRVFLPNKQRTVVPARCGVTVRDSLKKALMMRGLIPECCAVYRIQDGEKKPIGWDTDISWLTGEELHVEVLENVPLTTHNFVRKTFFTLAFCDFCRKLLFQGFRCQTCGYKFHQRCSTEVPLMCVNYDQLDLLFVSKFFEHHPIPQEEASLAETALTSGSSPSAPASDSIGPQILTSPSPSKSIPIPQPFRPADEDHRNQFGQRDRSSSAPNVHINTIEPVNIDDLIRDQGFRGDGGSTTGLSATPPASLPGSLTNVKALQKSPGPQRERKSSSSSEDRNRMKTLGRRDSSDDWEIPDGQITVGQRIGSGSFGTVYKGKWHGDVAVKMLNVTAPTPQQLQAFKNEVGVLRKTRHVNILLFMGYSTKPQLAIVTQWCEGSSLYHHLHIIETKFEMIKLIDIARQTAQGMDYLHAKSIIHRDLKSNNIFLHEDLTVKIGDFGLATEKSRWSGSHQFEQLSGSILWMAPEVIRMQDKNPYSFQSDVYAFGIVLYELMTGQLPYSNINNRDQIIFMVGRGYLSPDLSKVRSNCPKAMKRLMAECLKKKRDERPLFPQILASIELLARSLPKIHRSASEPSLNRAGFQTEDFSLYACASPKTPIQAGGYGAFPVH

Compound | selectivity for the BRAFV600E mutation [1] | MEK and ERK phosphorylation, sensitivity to inhibitor [2] | MEK½ and ERK½ phosphorylation [3] | MEK and ERK phosphorylation, sensitivity to inhibitor [4] | DUSP6 or SPRY2 mRNA expression [5] | DUSP6 or SPRY2 mRNA expression [6] | fusion-mediated cell invasion, sensitivity to inhibitor [7] | fusion-mediated cell invasion, sensitivity to inhibitor [8] | anchorage-independent colony growth in soft agar, sensitivity to inhibitor [9] | anchorage-independent colony growth in soft agar, sensitivity to inhibitor [10] | increased cell proliferation, sensitivity to inhibitor [11] | increased cell proliferation, sensitivity to inhibitor [12]
CC(C)S(=O)(=O)Nc1ccc(F)c(C(=O)c2c[nH]c3ncc(-c4cccnc4)cc23)c1F [PLX-4032] | highly selective | – | – | – | – | – | – | – | – | – | – | –
N#CC(=C(/N)Sc1ccccc1N)/C(C#N)=C(\N)Sc1ccccc1N [U0126] | – | sensitive | decreased | sensitive | significantly decreases | significantly decreases | sensitive | sensitive | sensitive | sensitive | – | –
CNC(=O)c1cc(Oc2ccc(NC(=O)Nc3ccc(Cl)c(C(F)(F)F)c3)cc2)ccn1 [sorafenib, N-(3-trifluoromethyl-4-chlorophenyl)-N′-(4-(2-methylcarbamoylpyridin-4-yl)oxyphenyl)urea] | – | – | – | – | – | – | sensitive | sensitive | sensitive | sensitive | sensitive | sensitive
